Test results from ChEMBL document CHEMBL1201862, “PubChem BioAssay data set” (2004).
Activity calls are given as the source filed them.

Legend:
[1] = NIH-3T3 fibroblast cytotoxicity, dose response, cytotoxicity control, cell-based, fluorescence, Alamar Blue, secondary assay (AID 2327); type: functional;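 also: NIH-3T3 mouse fibroblasts cultured with fluconazole at 8 µg/mL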
[2] = Counterscreen for AddAB inhibitors: absorbance-based bacterial cell-based high throughput dose response assay for inhibitors of bacterial viability. [Related pubchem assays (depositor defined):AID435030, AID449728, AID449731, AID488942, AID488955, AID488956]; type: functional
Exodeoxyribonuclease V = molecular target: T1, Exodeoxyribonuclease V (Escherichia coli (strain K12), UniProt P04993+P07648+P08394); experiment: RecBCD inhibition via phage-restricted bacterial growth – absorbance, V66 E. coli, mutant T4 phage, counter-screen for AddAB inhibitor project, dose response (AID 492957); type: functional, cell-based, Escherichia coli str. K-12 substr. MG1655
T1 sequence (P04993 whole entry): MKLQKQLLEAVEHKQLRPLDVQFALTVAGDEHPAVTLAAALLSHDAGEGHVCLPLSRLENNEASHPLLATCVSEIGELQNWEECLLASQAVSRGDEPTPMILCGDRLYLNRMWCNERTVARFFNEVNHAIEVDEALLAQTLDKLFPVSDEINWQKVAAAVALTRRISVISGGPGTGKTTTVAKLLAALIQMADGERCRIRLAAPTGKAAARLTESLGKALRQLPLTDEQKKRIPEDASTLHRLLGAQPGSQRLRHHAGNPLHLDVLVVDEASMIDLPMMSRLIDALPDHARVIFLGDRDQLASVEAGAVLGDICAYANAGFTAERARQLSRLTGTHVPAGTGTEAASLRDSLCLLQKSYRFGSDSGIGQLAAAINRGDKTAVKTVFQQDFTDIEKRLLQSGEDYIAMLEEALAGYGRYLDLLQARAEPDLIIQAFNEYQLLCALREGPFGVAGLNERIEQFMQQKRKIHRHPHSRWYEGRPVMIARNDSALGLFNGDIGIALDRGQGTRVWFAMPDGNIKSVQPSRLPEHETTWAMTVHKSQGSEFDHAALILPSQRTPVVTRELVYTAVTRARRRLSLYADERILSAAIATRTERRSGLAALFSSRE
T1 sequence (P07648 whole entry): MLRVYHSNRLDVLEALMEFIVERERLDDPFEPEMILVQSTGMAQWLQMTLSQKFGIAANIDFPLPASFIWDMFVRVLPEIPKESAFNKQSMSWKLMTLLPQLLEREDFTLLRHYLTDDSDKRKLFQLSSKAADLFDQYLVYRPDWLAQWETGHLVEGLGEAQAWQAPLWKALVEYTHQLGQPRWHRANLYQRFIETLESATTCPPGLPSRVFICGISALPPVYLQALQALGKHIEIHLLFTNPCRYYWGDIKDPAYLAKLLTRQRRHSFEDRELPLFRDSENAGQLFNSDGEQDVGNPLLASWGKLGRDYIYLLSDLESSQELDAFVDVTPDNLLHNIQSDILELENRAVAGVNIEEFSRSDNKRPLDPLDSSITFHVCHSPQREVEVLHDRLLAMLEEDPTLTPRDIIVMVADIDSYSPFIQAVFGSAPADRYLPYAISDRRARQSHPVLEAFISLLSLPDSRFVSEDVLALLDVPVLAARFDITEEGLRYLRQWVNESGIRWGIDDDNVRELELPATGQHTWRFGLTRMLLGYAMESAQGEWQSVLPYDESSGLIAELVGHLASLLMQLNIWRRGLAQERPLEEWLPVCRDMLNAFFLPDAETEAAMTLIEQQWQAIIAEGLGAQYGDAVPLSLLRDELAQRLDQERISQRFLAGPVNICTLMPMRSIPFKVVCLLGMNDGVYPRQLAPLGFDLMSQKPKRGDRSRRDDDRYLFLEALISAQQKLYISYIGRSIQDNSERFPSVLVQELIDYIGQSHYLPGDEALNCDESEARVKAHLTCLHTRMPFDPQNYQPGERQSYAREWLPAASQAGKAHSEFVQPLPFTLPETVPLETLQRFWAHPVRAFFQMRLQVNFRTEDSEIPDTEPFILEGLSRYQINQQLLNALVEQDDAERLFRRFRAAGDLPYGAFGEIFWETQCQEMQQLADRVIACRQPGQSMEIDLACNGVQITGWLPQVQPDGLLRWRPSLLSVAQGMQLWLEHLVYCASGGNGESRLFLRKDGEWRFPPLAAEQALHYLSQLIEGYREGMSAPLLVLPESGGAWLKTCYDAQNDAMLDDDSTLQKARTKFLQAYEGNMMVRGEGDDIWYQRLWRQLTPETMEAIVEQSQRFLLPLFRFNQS
T1 sequence (P08394 whole entry): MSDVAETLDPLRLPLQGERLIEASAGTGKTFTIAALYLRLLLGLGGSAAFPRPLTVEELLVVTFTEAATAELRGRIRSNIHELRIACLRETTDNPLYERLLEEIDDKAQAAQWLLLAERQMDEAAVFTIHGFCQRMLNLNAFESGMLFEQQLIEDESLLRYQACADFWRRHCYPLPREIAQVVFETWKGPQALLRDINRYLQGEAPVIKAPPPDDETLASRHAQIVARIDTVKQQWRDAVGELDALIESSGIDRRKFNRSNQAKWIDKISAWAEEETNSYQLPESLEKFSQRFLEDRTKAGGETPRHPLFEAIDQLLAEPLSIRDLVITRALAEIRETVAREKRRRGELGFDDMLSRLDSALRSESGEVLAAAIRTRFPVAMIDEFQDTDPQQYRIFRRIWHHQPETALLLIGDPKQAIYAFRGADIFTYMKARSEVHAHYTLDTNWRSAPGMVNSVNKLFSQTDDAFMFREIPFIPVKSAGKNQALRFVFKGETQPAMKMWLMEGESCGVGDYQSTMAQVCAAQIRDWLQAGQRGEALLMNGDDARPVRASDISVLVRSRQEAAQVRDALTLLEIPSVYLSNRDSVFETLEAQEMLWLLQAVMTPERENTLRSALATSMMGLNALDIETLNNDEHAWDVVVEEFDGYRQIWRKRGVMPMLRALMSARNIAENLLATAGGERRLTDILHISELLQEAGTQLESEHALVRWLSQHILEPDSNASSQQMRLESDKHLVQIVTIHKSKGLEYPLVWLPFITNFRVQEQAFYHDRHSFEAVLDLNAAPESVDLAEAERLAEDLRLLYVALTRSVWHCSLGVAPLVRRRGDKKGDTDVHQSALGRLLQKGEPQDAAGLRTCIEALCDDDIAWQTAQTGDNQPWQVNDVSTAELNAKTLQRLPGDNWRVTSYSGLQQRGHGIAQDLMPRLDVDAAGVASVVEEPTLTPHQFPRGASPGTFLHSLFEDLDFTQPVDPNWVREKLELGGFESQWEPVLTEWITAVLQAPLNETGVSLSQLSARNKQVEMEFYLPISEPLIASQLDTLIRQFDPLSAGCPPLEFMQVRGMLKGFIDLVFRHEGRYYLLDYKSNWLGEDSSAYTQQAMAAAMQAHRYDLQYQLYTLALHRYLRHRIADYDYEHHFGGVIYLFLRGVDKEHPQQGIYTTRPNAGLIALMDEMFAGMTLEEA

[3] = molecular target: Dual specificity tyrosine-phosphorylation-regulated kinase 1A (Rattus norvegicus, UniProt Q63470); type: biochemical, Homo sapiens

## CN1CCc2cc3c(c4c2[C@H]1[C@H](O)c1ccccc1-4)OCO3
[1]
  EC50: 75.6 µM (active)
[2]
  IC50: > 119 µM (inactive)
Exodeoxyribonuclease V
  IC50: > 119 µM (inactive)
[3]
  AC50: 0.877 µM (active)
